Measured values: ChEMBL document CHEMBL1144129, “Isolation of xestosterol esters of brominated acetylenic fatty acids from the marine sponge xestospongia testudinaria” (J Nat Prod, 1999)

Target: T1, Adenosine receptor A1 (Rattus norvegicus, UniProt P25099)
T1 sequence (P25099 whole entry): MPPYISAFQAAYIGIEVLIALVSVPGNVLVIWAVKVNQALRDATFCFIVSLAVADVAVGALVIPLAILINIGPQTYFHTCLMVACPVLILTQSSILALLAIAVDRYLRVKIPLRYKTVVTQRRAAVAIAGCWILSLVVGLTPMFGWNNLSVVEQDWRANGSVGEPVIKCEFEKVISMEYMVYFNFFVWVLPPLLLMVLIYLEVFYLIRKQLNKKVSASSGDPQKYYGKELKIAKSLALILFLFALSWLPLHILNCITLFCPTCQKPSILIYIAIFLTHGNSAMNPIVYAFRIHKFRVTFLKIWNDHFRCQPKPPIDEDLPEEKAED
Test: Displacement of [3H]DPCPX from rat brain adenosine A1 receptor

IC50: 106 µM
Compound: O=C(O)CCCCCC#C/C=C/CCCCC#C/C=C/Br
